This note sets out measurements from patent publication US20090306059A1, “CYCLIC AMINE DERIVATIVE HAVING SUBSTITUTED ALKYL GROUP” (priority 2005, published 2009).

Structures can show the parent of a compound that is named as a salt.

In this assay the test system is platelet aggregation caused by ADP in platelet-rich plasma (PRP) after oral administration. Kind of assay: Test Example 2: ex vivo platelet aggregation inhibitory effect. The conditions noted are these: 10 mg/kg orally, 4 hours before blood sampling, rat PRP, ADP final concentration 3 μM, maximum platelet aggregation ratio, read-out: Test Example 1 (% inhibition) 10 mg/kg. Format: in vivo, rat (male Sprague-Dawley). How it is done: Male Sprague-Dawley rats (8-week old, Japan SLC, Inc.), 3 to 4 animals per group, were used for the test. The platelet aggregation was measured with an automatic platelet aggregometer (MCM Hema Tracer 313M, MC Medical, Inc.) by a partially modified method of Bom et al., The Journal of Physiology, Vol. 168, Section 178 (1963). Test compounds suspended in 5% Arabian gum solution or 10% dimethylacetamide/64% polyethylene glycol 400/16% Tween 80 solution were orally administered in a dose ratio of 1 mL/kg 4 hours before blood sampling. Vehicle was orally administered 4 hours in a dose ratio of 1 mL/kg before the sampling of the blood for the control group. 6.3 ml of blood was sampled from the ventral aorta of a rat anesthetized with pentobarbital (40 mg/kg) using 3.8% (w/v) sodium citrate solution (0.7 ml) as an anticoagulant. The obtained blood containing citrate was centrifuged (230 g, 15 minutes, room temperature) to separate PRP. The blood after the separation of PRP was further centrifuged (2,000 g, 10 minutes, room temperature) to separate PPP. After the number of blood platelet in PRP was measured with a multi-item automatic blood corpuscle counter (KX-21N, Sysmex Corporation), PPP was added thereto to adjust the blood platelet to 5×10^8/ml. After PRP (240 μl) was pipetted into cuvettes, the cuvettes were set in the automatic platelet aggregometer. After preliminary warming (37° C.) for 1.5 minutes, 10 μl of ADP solution (final concentration 3 μM) was added to cause platelet aggregation. Platelet aggregation was measured for 5 minutes and the maximum platelet aggregation ratio was determined.

On to `CCOC(=O)CN1CCN(C/C=C2\CN(C(C(=O)C3CC3)c3ccccc3F)CCC2SC(C)=O)CC1=O` (stereo not shown) [Example 13, (E)-4-(Acetylsulfanyl)-1-[2-cyclopropyl-1-(2-fluorophenyl)-2-oxoethyl]-3-{2-[4-(ethoxycarbonylmethyl)-3-oxopiperazin-1-yl]ethylidene}piperidine], for which the inhibition at 10 mg/kg came out at 63%.

Take `CCOC(=O)CCN1CCN(C/C=C2\CN(C(C(=O)C3CC3)c3ccccc3F)CCC2SC(C)=O)CC1=O` (stereo not shown) [Example 17, (E)-4-(Acetylsulfanyl)-1-[2-cyclopropyl-1-(2-fluorophenyl)-2-oxoethyl]-3-(2-{4-[2-(ethoxycarbonyl)ethyl]-3-oxopiperazin-1-yl}ethylidene)piperidine]: the inhibition at 10 mg/kg was 92%.

With `CCOC(=O)CCN1CCN(C/C=C2\CN(C(C(=O)C3CC3)c3ccccc3F)CCC2SC(C)=O)C(=O)C1` (stereo not shown) [Example 21, (E)-4-(Acetylsulfanyl)-1-[2-cyclopropyl-1-(2-fluorophenyl)-2-oxoethyl]-3-(2-{4-[2-(ethoxycarbonyl)ethyl]-2-oxopiperazin-1-yl}ethylidene)piperidine dihydrochloride], the inhibition at 10 mg/kg was determined as 90%.

Take `CC(=O)SC1CCN(C(C(=O)C2CC2)c2ccccc2F)C/C1=C\CN1CCN(CCC(=O)O)CC1=O` (stereo not shown) [Example 24, (E)-4-(Acetylsulfanyl)-3-(2-{4-[2-(carboxyethyl)]-2-oxopiperazin-1-yl}ethylidene)-1-[2-cyclopropyl-1-(2-fluorophenyl)-2-oxoethyl]piperidine dihydrochloride]: the inhibition at 10 mg/kg was 85%.

Turning to `COC(=O)[C@@H]1CCCN1C/C=C1\CN(C(C(=O)C2CC2)c2ccccc2F)CCC1SC(C)=O` (stereo partly drawn) [Example 25, (E)-4-(Acetylsulfanyl)-1-[2-cyclopropyl-1-(2-fluorophenyl)-2-oxoethyl]-3-{2-[(2S)-(methoxycarbonyl)pyrrolidin-1-yl]ethylidene}piperidine dihydrochloride], the inhibition at 10 mg/kg was found to be 92%.

Regarding `COC(=O)[C@@H]1CCCN1C/C=C1\CN(C(C(=O)C2CC2)c2ccccc2F)CCC1S` (stereo partly drawn) [Example 26, (E)-1-[2-Cyclopropyl-1-(2-fluorophenyl)-2-oxoethyl]-3-{2-[(2S)-(methoxycarbonyl)pyrrolidin-1-yl]ethylidene}-4-sulfanylpiperidine dihydrochloride], the inhibition at 10 mg/kg came to 92%.

With `CCOC(=O)C1CCN(C/C=C2\CN(C(C(=O)C3CC3)c3ccccc3F)CCC2SC(C)=O)CC1` (stereo not shown) [Example 29, (E)-4-(Acetylsulfanyl)-1-[2-cyclopropyl-1-(2-fluorophenyl)-2-oxoethyl]-3-{2-[4-(ethoxycarbonyl)piperidin-1-yl]ethylidene}piperidine dihydrochloride], the inhibition at 10 mg/kg was determined as 89%.

On to `CCOC(=O)C1CCN(C/C=C2\CN(C(C(=O)C3CC3)c3ccccc3F)CCC2S)CC1` (stereo not shown) [Example 30, (E)-1-[2-Cyclopropyl-1-(2-fluorophenyl)-2-oxoethyl]-3-{2-[4-(ethoxycarbonyl)piperidin-1-yl]ethylidene}-4-sulfanylpiperidine dihydrochloride], for which the inhibition at 10 mg/kg was found to be 93%.

With `O=C(O)C1CCN(C/C=C2\CN(C(C(=O)C3CC3)c3ccccc3F)CCC2S)CC1` (stereo not shown) [Example 31, (E)-3-{2-[4-(Carboxypiperidine)-1-yl]ethylidene}-1-[2-cyclopropyl-1-(2-fluorophenyl)-2-oxoethyl]-4-sulfanylpiperidine dihydrochloride], the inhibition at 10 mg/kg was 82%.

With `CC(=O)SC1CCN(C(C(=O)C2CC2)c2ccccc2F)C/C1=C\CO` (stereo not shown) [Example 32, (E)-4-(Acetylsulfanyl)-1-[2-cyclopropyl-1-(2-fluorophenyl)-2-oxoethyl]-3-(2-hydroxyethylidene)piperidine], the inhibition at 10 mg/kg came to 86%.

As for `CCOC(=O)CN1CCC(/C=C2\CN(C(C(=O)C3CC3)c3ccccc3F)CCC2SC(C)=O)CC1` (stereo not shown) [Example 36, (E)-4-(Acetylsulfanyl)-1-[2-cyclopropyl-1-(2-fluorophenyl)-2-oxoethyl]-3-{[1-(ethoxycarbonylmethyl)piperidin-4-yl]methylidene}piperidine dihydrochloride], the inhibition at 10 mg/kg came out at 80%.

Regarding `CCOC(=O)CN1CCC(/C=C2\CN(C(C(=O)C3CC3)c3ccccc3F)CCC2S)CC1` (stereo not shown) [Example 38, (E)-1-[2-Cyclopropyl-1-(2-fluorophenyl)-2-oxoethyl]-3-{[1-(ethoxycarbonylmethyl)piperidin-4-yl]methylidene}-4-sulfanylpiperidine dihydrochloride], the inhibition at 10 mg/kg was found to be 66%.

In the case of `C/C(Cn1cc(C(=O)O)cn1)=C1/CN(C(C(=O)C2CC2)c2ccccc2F)CCC1S` (stereo not shown) [Example 62, (E)-3-{[2-(4-Carboxy-1H-pyrazol-1-yl)-1-methyl]ethylidene}-1-[2-cyclopropyl-1-(2-fluorophenyl)-2-oxoethyl]-4-sulfanylpiperidine hydrochloride], the inhibition at 10 mg/kg turned out to be 94%.

Take `O=C(O)C/C=C1\CN(C(C(=O)C2CC2)c2ccccc2F)CCC1S` (stereo not shown) [Example 64, (E)-3-(2-Carboxyethylidene)-1-[2-cyclopropyl-1-(2-fluorophenyl)-2-oxoethyl]-4-sulfanylpiperidine hydrochloride]: the inhibition at 10 mg/kg stood at 94%.

As to `CC(=O)SC1CCN(C(C(=O)C2CC2)c2ccccc2F)C/C1=C/CO` (stereo not shown) [Example 66, (Z)-4-(Acetylsulfanyl)-1-[2-cyclopropyl-1-(2-fluorophenyl)-2-oxoethyl]-3-(2-hydroxyethylidene)piperidine hydrochloride], the inhibition at 10 mg/kg worked out at 87%.

As for `O=C(O)CCCN1CCN(C/C=C2\CN(C(C(=O)C3CC3)c3ccccc3F)CCC2S)C(=O)C1` (stereo not shown) [Example 72, (E)-3-(2-{4-[3-(Carboxypropyl)]-2-oxopiperazin-1-yl}ethylidene)-1-[2-cyclopropyl-1-(2-fluorophenyl)-2-oxoethyl]-4-sulfanylpiperidine dihydrochloride], the inhibition at 10 mg/kg was 76%.

Consider `COC(=O)[C@@H]1C[C@@H](O)CN1C/C=C1\CN(C(C(=O)C2CC2)c2ccccc2F)CCC1SC(C)=O` (stereo partly drawn) [Example 78, (E)-4-(Acetylsulfanyl)-1-[2-cyclopropyl-1-(2-fluorophenyl)-2-oxoethyl]-3-{2-[(2S,4R)-4-hydroxy-2-(methoxycarbonyl)pyrrolidin-1-yl]ethylidene}piperidine dihydrochloride], for which the inhibition at 10 mg/kg amounted to 75%.

For the compound `CCOC(=O)CN(C)C/C=C1\CN(C(C(=O)C2CC2)c2ccccc2F)CCC1SC(C)=O` (stereo not shown) [Example 81, (E)-4-(Acetylsulfanyl)-1-[2-cyclopropyl-1-(2-fluorophenyl)-2-oxoethyl]-3-{2-[N-(ethoxycarbonylmethyl)-N-methylamino]ethylidene}piperidine dihydrochloride], the inhibition at 10 mg/kg amounted to 83%.

As to `CCOC(=O)CN(C)C/C=C1\CN(C(C(=O)C2CC2)c2ccccc2F)CCC1S` (stereo not shown) [Example 82, (E)-1-[2-Cyclopropyl-1-(2-fluorophenyl)-2-oxoethyl]-3-{2-[N-(ethoxycarbonylmethyl)-N-methylamino]ethylidene}-4-sulfanylpiperidine dihydrochloride], the inhibition at 10 mg/kg was determined as 81%.

For the compound `CCOC(=O)CN(C)C/C=C1/CN(C(C(=O)C2CC2)c2ccccc2F)CCC1SC(C)=O` (stereo not shown) [Example 84, (Z)-4-(Acetylsulfanyl)-1-[2-cyclopropyl-1-(2-fluorophenyl)-2-oxoethyl]-3-{2-[N-(ethoxycarbonylmethyl)-N-methylamino]ethylidene}piperidine dihydrochloride], the inhibition at 10 mg/kg was found to be 82%.

Turning to `CCOC(=O)CN(C)C/C=C1/CN(C(C(=O)C2CC2)c2ccccc2F)CCC1S` (stereo not shown) [Example 85, (Z)-1-[2-Cyclopropyl-1-(2-fluorophenyl)-2-oxoethyl]-3-{2-[N-(ethoxycarbonylmethyl)-N-methylamino]ethylidene}-4-sulfanylpiperidine dihydrochloride], the inhibition at 10 mg/kg stood at 82%.

In the case of `CCOC(=O)CCCN(C)C/C=C1/CN(C(C(=O)C2CC2)c2ccccc2F)CCC1SC(C)=O` (stereo not shown) [Example 89, (Z)-4-(Acetylsulfanyl)-1-[2-cyclopropyl-1-(2-fluorophenyl)-2-oxoethyl]-3-(2-{N-[3-(ethoxycarbonyl)propyl]-N-methylamino}ethylidene)piperidine dihydrochloride], the inhibition at 10 mg/kg worked out at 83%.
